According to ChEMBL document CHEMBL1795303, “Synthesis and evaluation of benzofuran-2-yl(phenyl)methanone derivatives as ligands for β-amyloid plaques” (Bioorg Med Chem, 2011):
Calls of active or inactive are those of the source. The calls are words filed in the database; no cut-off is given here.

Columns and labels:
[1] = Displacement of [125I]-IMPY from amyloid beta (1 to 42) after 2 hrs by gamma counting
[2] = species: Mus musculus; experiment: Binding affinity to beta-amyloid in APP/PS1 transgenic C57 mouse brain at 5 uCi/[…] after 1 hr by autoradiography; format: tissue-based; conditions: tested as the 125I-labelled form
[3] = system: Stomach; experiment: Biodistribution in ddY mouse stomach assessed per organ at 0.9 uCi, iv after 30 mins by gamma counting; format: ADME, organism-based; conditions: in vivo, 0.5 h
[4] = system: Lung; experiment: Biodistribution in ddY mouse lung at 0.9 uCi, iv after 60 mins by gamma counting; format: ADME, organism-based; conditions: in vivo, 1 h
[5] = system: Intestine; experiment: Biodistribution in ddY mouse intestine at 0.9 uCi, iv after 2 mins by gamma counting; format: ADME, organism-based; conditions: in vivo
[6] = system: Lung; experiment: Biodistribution in ddY mouse lung at 0.9 uCi, iv after 15 mins by gamma counting; format: ADME, organism-based; conditions: in vivo, 0.25 h
[7] = system: Heart; experiment: Biodistribution in ddY mouse heart at 0.9 uCi, iv after 60 mins by gamma counting; format: ADME, organism-based; conditions: in vivo, 1 h
[8] = system: Spleen; experiment: Biodistribution in ddY mouse spleen at 0.9 uCi, iv after 2 mins by gamma counting; format: ADME, organism-based; conditions: in vivo
[9] = system: Spleen; experiment: Biodistribution in ddY mouse spleen at 0.9 uCi, iv after 30 mins by gamma counting; format: ADME, organism-based; conditions: in vivo, 0.5 h
[10] = system: Blood; experiment: Biodistribution in ddY mouse blood at 0.9 uCi, iv after 30 mins by gamma counting; format: ADME, organism-based; conditions: in vivo, 0.5 h
[11] = system: Stomach; experiment: Biodistribution in ddY mouse stomach assessed per organ at 0.9 uCi, iv after 120 mins by gamma counting; format: ADME, organism-based; conditions: in vivo, 2 h
[12] = system: Blood; experiment: Biodistribution in ddY mouse blood at 0.9 uCi, iv after 60 mins by gamma counting; format: ADME, organism-based; conditions: in vivo, 1 h
[13] = system: Lung; experiment: Biodistribution in ddY mouse lung at 0.9 uCi, iv after 2 mins by gamma counting; format: ADME, organism-based; conditions: in vivo
[14] = system: Mus musculus; experiment: Biodistribution in ddY mouse thyroid assessed per organ at 0.9 uCi, iv after 2 mins by gamma counting; format: ADME, organism-based, Thyroid gland; conditions: in vivo
[15] = system: Blood; experiment: Biodistribution in ddY mouse blood at 0.9 uCi, iv after 15 mins by gamma counting; format: ADME, organism-based; conditions: in vivo, 0.25 h
[16] = system: Liver; experiment: Biodistribution in ddY mouse liver at 0.9 uCi, iv after 120 mins by gamma counting; format: ADME, organism-based; conditions: in vivo, 2 h
[17] = system: Brain; experiment: Biodistribution in ddY mouse brain at 0.9 uCi, iv after 2 mins by gamma counting; format: ADME, organism-based; conditions: in vivo
[18] = system: Liver; experiment: Biodistribution in ddY mouse liver at 0.9 uCi, iv after 60 mins by gamma counting; format: ADME, organism-based; conditions: in vivo, 1 h
[19] = system: Intestine; experiment: Biodistribution in ddY mouse intestine at 0.9 uCi, iv after 120 mins by gamma counting; format: ADME, organism-based; conditions: in vivo, 2 h
[20] = system: Kidney; experiment: Biodistribution in ddY mouse kidney at 0.9 uCi, iv after 15 mins by gamma counting; format: ADME, organism-based; conditions: in vivo, 0.25 h
[21] = system: Blood; experiment: Biodistribution in ddY mouse blood at 0.9 uCi, iv after 2 mins by gamma counting; format: ADME, organism-based; conditions: in vivo
[22] = system: Kidney; experiment: Biodistribution in ddY mouse kidney at 0.9 uCi, iv after 30 mins by gamma counting; format: ADME, organism-based; conditions: in vivo, 0.5 h
[23] = system: Brain; experiment: Biodistribution in ddY mouse brain at 0.9 uCi, iv after 60 mins by gamma counting; format: ADME, organism-based; conditions: in vivo, 1 h
[24] = system: Liver; experiment: Biodistribution in ddY mouse liver at 0.9 uCi, iv after 30 mins by gamma counting; format: ADME, organism-based; conditions: in vivo, 0.5 h
[25] = system: Kidney; experiment: Biodistribution in ddY mouse kidney at 0.9 uCi, iv after 2 mins by gamma counting; format: ADME, organism-based; conditions: in vivo
[26] = system: Lung; experiment: Biodistribution in ddY mouse lung at 0.9 uCi, iv after 120 mins by gamma counting; format: ADME, organism-based; conditions: in vivo, 2 h
[27] = system: Spleen; experiment: Biodistribution in ddY mouse spleen at 0.9 uCi, iv after 60 mins by gamma counting; format: ADME, organism-based; conditions: in vivo, 1 h
[28] = system: Blood; experiment: Biodistribution in ddY mouse blood at 0.9 uCi, iv after 120 mins by gamma counting; format: ADME, organism-based; conditions: in vivo, 2 h
[29] = system: Intestine; experiment: Biodistribution in ddY mouse intestine at 0.9 uCi, iv after 60 mins by gamma counting; format: ADME, organism-based; conditions: in vivo, 1 h
[30] = system: Stomach; experiment: Biodistribution in ddY mouse stomach assessed per organ at 0.9 uCi, iv after 2 mins by gamma counting; format: ADME, organism-based; conditions: in vivo
[31] = system: Heart; experiment: Biodistribution in ddY mouse heart at 0.9 uCi, iv after 15 mins by gamma counting; format: ADME, organism-based; conditions: in vivo, 0.25 h
[32] = system: Spleen; experiment: Biodistribution in ddY mouse spleen at 0.9 uCi, iv after 120 mins by gamma counting; format: ADME, organism-based; conditions: in vivo, 2 h
[33] = system: Brain; experiment: Ratio of drug level in brain after 2 mins to drug level in brain after 30 mins ddY mouse at 0.9 uCi, iv; format: ADME, organism-based; conditions: in vivo
[34] = system: Intestine; experiment: Biodistribution in ddY mouse intestine at 0.9 uCi, iv after 15 mins by gamma counting; format: ADME, organism-based; conditions: in vivo, 0.25 h
[35] = system: Kidney; experiment: Biodistribution in ddY mouse kidney at 0.9 uCi, iv after 60 mins by gamma counting; format: ADME, organism-based; conditions: in vivo, 1 h
[36] = system: Heart; experiment: Biodistribution in ddY mouse heart at 0.9 uCi, iv after 2 mins by gamma counting; format: ADME, organism-based; conditions: in vivo
[37] = Lipophilicity, log D of the compound; format: physicochemical; conditions: octanol/water
[38] = system: Intestine; experiment: Biodistribution in ddY mouse intestine at 0.9 uCi, iv after 30 mins by gamma counting; format: ADME, organism-based; conditions: in vivo, 0.5 h
[39] = system: Heart; experiment: Biodistribution in ddY mouse heart at 0.9 uCi, iv after 120 mins by gamma counting; format: ADME, organism-based; conditions: in vivo, 2 h
[40] = system: Mus musculus; experiment: Biodistribution in ddY mouse thyroid assessed per organ at 0.9 uCi, iv after 120 mins by gamma counting; format: ADME, organism-based, Thyroid gland; conditions: in vivo, 2 h
[41] = system: Brain; experiment: Biodistribution in ddY mouse brain at 0.9 uCi, iv after 15 mins by gamma counting; format: ADME, organism-based; conditions: in vivo, 0.25 h
[42] = system: Mus musculus; experiment: Biodistribution in ddY mouse thyroid assessed per organ at 0.9 uCi, iv after 30 mins by gamma counting; format: ADME, organism-based, Thyroid gland; conditions: in vivo, 0.5 h
[43] = system: Stomach; experiment: Biodistribution in ddY mouse stomach assessed per organ at 0.9 uCi, iv after 60 mins by gamma counting; format: ADME, organism-based; conditions: in vivo, 1 h
[44] = system: Lung; experiment: Biodistribution in ddY mouse lung at 0.9 uCi, iv after 30 mins by gamma counting; format: ADME, organism-based; conditions: in vivo, 0.5 h
[45] = system: Brain; experiment: Biodistribution in ddY mouse brain at 0.9 uCi, iv after 120 mins by gamma counting; format: ADME, organism-based; conditions: in vivo, 2 h
[46] = system: Liver; experiment: Biodistribution in ddY mouse liver at 0.9 uCi, iv after 2 mins by gamma counting; format: ADME, organism-based; conditions: in vivo
[47] = system: Liver; experiment: Biodistribution in ddY mouse liver at 0.9 uCi, iv after 15 mins by gamma counting; format: ADME, organism-based; conditions: in vivo, 0.25 h
[48] = system: Kidney; experiment: Biodistribution in ddY mouse kidney at 0.9 uCi, iv after 120 mins by gamma counting; format: ADME, organism-based; conditions: in vivo, 2 h
[49] = system: Heart; experiment: Biodistribution in ddY mouse heart at 0.9 uCi, iv after 30 mins by gamma counting; format: ADME, organism-based; conditions: in vivo, 0.5 h
[50] = system: Spleen; experiment: Biodistribution in ddY mouse spleen at 0.9 uCi, iv after 15 mins by gamma counting; format: ADME, organism-based; conditions: in vivo, 0.25 h
[51] = system: Stomach; experiment: Biodistribution in ddY mouse stomach assessed per organ at 0.9 uCi, iv after 15 mins by gamma counting; format: ADME, organism-based; conditions: in vivo, 0.25 h
[52] = system: Mus musculus; experiment: Biodistribution in ddY mouse thyroid assessed per organ at 0.9 uCi, iv after 60 mins by gamma counting; format: ADME, organism-based, Thyroid gland; conditions: in vivo, 1 h
[53] = system: Brain; experiment: Biodistribution in ddY mouse brain at 0.9 uCi, iv after 30 mins by gamma counting; format: ADME, organism-based; conditions: in vivo, 0.5 h
[54] = system: Mus musculus; experiment: Biodistribution in ddY mouse thyroid assessed per organ at 0.9 uCi, iv after 15 mins by gamma counting; format: ADME, organism-based, Thyroid gland; conditions: in vivo, 0.25 h

Nc1ccc(C(=O)c2cc3cc(Br)ccc3o2)cc1
Ki [1]: 157 nM

CNc1ccc(C(=O)c2cc3cc(I)ccc3o2)cc1
Activity [2]: Active
Ki [1]: 34.5 nM

Nc1ccc(C(=O)c2cc3cc(I)ccc3o2)cc1
Ki [1]: 133 nM

CN(C)c1ccc(C(=O)c2cc3cc(Br)ccc3o2)cc1
Ki [1]: 8.8 nM

O=C(c1ccc([N+](=O)[O-])cc1)c1cc2cc(Br)ccc2o1
Ki [1]: > 1000 nM

CN(C)c1ccc(C(=O)c2cc3cc(I)ccc3o2)cc1
Activity [2]: Active
Ki [1]: 6.6 nM

CNc1ccc(C(=O)c2cc3cc(Br)ccc3o2)cc1
Ki [1]: 44.9 nM

CN(C)c1ccc(C(=O)c2cc3cc([125I])ccc3o2)cc1
Drug uptake [3]: 2.6 %ID
Drug uptake [4]: 0.94 % ID/g
Drug uptake [5]: 3.14 % ID/g
Drug uptake [6]: 2.2 % ID/g
Drug uptake [7]: 0.74 % ID/g
Drug uptake [8]: 2.75 % ID/g
Drug uptake [9]: 0.94 % ID/g
Drug uptake [10]: 1.07 % ID/g
Drug uptake [11]: 3.76 %ID
Drug uptake [12]: 0.82 % ID/g
Drug uptake [13]: 7.34 % ID/g
Drug uptake [14]: 0.02 %ID
Drug uptake [15]: 1.16 % ID/g
Drug uptake [16]: 3.59 % ID/g
Drug uptake [17]: 3.53 % ID/g
Drug uptake [18]: 5.09 % ID/g
Drug uptake [19]: 25.19 % ID/g
Drug uptake [20]: 3.84 % ID/g
Drug uptake [21]: 2.56 % ID/g
Drug uptake [22]: 4.28 % ID/g
Drug uptake [23]: 0.87 % ID/g
Drug uptake [24]: 6.7 % ID/g
Drug uptake [25]: 10.26 % ID/g
Drug uptake [26]: 0.79 % ID/g
Drug uptake [27]: 0.66 % ID/g
Drug uptake [28]: 0.63 % ID/g
Drug uptake [29]: 20.88 % ID/g
Drug uptake [30]: 0.95 %ID
Drug uptake [31]: 1.45 % ID/g
Drug uptake [32]: 0.43 % ID/g
Ratio [33]: 2.34
Drug uptake [34]: 11.77 % ID/g
Drug uptake [35]: 1.9 % ID/g
Drug uptake [36]: 7.01 % ID/g
logD [37]: 4.4
Drug uptake [38]: 21.81 % ID/g
Drug uptake [39]: 0.49 % ID/g
Drug uptake [40]: 0.8 %ID
Drug uptake [41]: 2.38 % ID/g
Drug uptake [42]: 0.18 %ID
Drug uptake [43]: 3.1 %ID
Drug uptake [44]: 1.61 % ID/g
Drug uptake [45]: 0.41 % ID/g
Drug uptake [46]: 16.19 % ID/g
Drug uptake [47]: 11 % ID/g
Drug uptake [48]: 1.64 % ID/g
Drug uptake [49]: 1.15 % ID/g
Drug uptake [50]: 1.59 % ID/g
Drug uptake [51]: 1.54 %ID
Drug uptake [52]: 0.46 %ID
Drug uptake [53]: 1.51 % ID/g
Drug uptake [54]: 0.05 %ID

O=C(c1ccc([N+](=O)[O-])cc1)c1cc2cc(I)ccc2o1
Ki [1]: > 1000 nM
